This is an account of results in article PMC9694579 (Microorganisms, 2022).

Series [1] is described as follows: in vitro. The settings on record: human; for CC50: Cytotoxicity CC50 Huh-7.
For series [2], the system named is Huh-7 cells. The settings on record: human.
Series [3] in a line: in vitro. The settings on record: human.
The nature of series [4]: in vitro. The settings on record: African green monkey.
For series [5], the system named is YFV. Put plainly: microbe, parasite or virus in culture. The class given is cell-based, Yellow fever virus strain 17D. As to conditions: for EC50: read-out: Anti-YFV Activity (Huh-7) EC50; for EC90: read-out: Anti-YFV Activity (Huh-7) EC90.
A short description of series [6]: in vitro. The settings on record: human. This is another data set of the same source.
For series [7], the system named is primary human hepatocytes.
The test system of series [8] is YFV. The settings on record: cited from earlier work.
Series [9] concerns YFV. As to the kind of experiment: microbe, parasite or virus in culture. The class given is cell-based. The settings on record: Yellow fever virus, RD, read-out: EC50, inhibition of YFV replication in RD cells.
Series [10] relates to Huh-7 cells. As to conditions: cited from earlier work.
The subject of the next series is MDM. The settings on record: human.
In series [11] the test system is YFV. As to the kind of experiment: microbe, parasite or virus in culture. The class given is cell-based, Yellow fever virus strain 17D. The settings on record: Yellow fever virus, Huh-7, 72 h, read-out: EC50 in 3D cultures.
Series [12] deals with YFV. As to the kind of experiment: microbe, parasite or virus in culture. The settings on record: Yellow fever virus, Macrophage; for EC50: read-out: EC50, YFV replication in MDM. The class given is cell-based, Yellow fever virus strain 17D.
For a further series, the system named is YFV 17D. The settings on record: mouse, in vivo.
Series [13] in a line: in vitro. As to conditions: human. The source holds these as a separate data set.
Series [14] deals with primary human hepatocytes. The settings on record: cited from earlier work.
Series [15] has as its system YFV. As to conditions: mouse, in vivo; cited from earlier work.
Series [16] relates to Huh-7 cells. As to conditions: human. This is another data set of the same source.
The mark [17] stands for this setting: Yellow fever virus, Huh-7, 72 h.

Read-outs that look alike come from different tables or passages of the source.

Usually EC50 stands for the midpoint of the concentration-response curve. Broadly, the EC90 is the concentration needed for an effect of 90%. The viability is the share of living cells, or the viability signal relative to a control.

With `O=c1ccn([C@@H]2O[C@H](CO)[C@@H](O)C2(Cl)Cl)c(=O)[nH]1` [Compound 2], the CC50 in “in vitro [1]”, in the series “in vitro [3]”, in “in vitro [4]” and in the series “in vitro [6]” was more than 100 µM in each case. In addition, the “NTP formation in Huh-7 cells” value in the series with Huh-7 cells [2] stood at 0.5 pmol / 10^6 cells. Moreover, the EC50 in the series on YFV [5] (setting [17]) was more than 10 µM. In the series with YFV [5] (setting [17]), the EC90 was more than 10 µM.

As to `CC(C)OC(=O)[C@H](C)NP(=O)(OC[C@H]1O[C@@H](n2ccc(=O)[nH]c2=O)C(Cl)(Cl)[C@@H]1O)Oc1ccccc1` (some centres unmarked) [Compound 3], the CC50 in the series “in vitro [1]”, in the series “in vitro [3]”, in “in vitro [4]” and in the series “in vitro [6]” was more than 100 µM each time. For the same compound, the “NTP formation in Huh-7 cells” value in the series with Huh-7 cells [2] turned out to be 39.7 pmol / 10^6 cells. Besides, the EC50 in the series on YFV [5] (setting [17]) was determined as 0.4 ± 0.5 µM. The EC90 with YFV [5] (setting [17]) is 3.2 ± 2.7 µM. The “NTP formation in primary human hepatocytes” value in series [7] is listed as 622.0 pmol / 10^6 cells.

As to `O=c1ccn([C@@H]2O[C@H](CO)[C@@H](O)[C@]2(F)Cl)c(=O)[nH]1` [Compound 4], the CC50 in “in vitro [1]”, in the series “in vitro [3]”, in the series “in vitro [4]” and in the series “in vitro [6]” was more than 100 µM each time. Besides, in the series on Huh-7 cells [2], the “NTP formation in Huh-7 cells” value is given as 0.5 pmol / 10^6 cells. Further, in the series with YFV [5] (setting [17]), the EC50 was more than 10 µM. Moreover, the EC90 in the series with YFV [5] (setting [17]) was more than 10 µM.

For `CC(C)OC(=O)[C@H](C)NP(=O)(OC[C@H]1O[C@@H](n2ccc(=O)[nH]c2=O)[C@@](F)(Cl)[C@@H]1O)Oc1ccccc1` (some centres unmarked) [Compound 5], the “NTP formation in Huh-7 cells” value in the series with Huh-7 cells [2] is 866.2 pmol / 10^6 cells. Further, the CC50 in the series “in vitro [3]”, in “in vitro [4]” and in the series “in vitro [6]” was more than 100 µM each time. For the same compound, the “Reduction of CPE in RD cell line” value in the series on YFV [8] is reported as less than 2%. Further, the EC50 with YFV [9] turned out to be 0.5 ± 0.2 µM; in the series on YFV [5] (setting [17]), 0.4 ± 0.2 µM. Further, in the series with YFV [5] (setting [17]), the EC90 came to 6.5 ± 2.6 µM. Besides, in series [7], the “NTP formation in primary human hepatocytes” value is given as 5245.0 pmol / 10^6 cells.

For `O=c1ccn([C@@H]2O[C@H](CO)[C@@H](O)[C@@]2(F)Cl)c(=O)[nH]1` [Compound 6], the CC50 in the series “in vitro [1]”, in the series “in vitro [3]”, in “in vitro [4]” and in “in vitro [6]” was more than 100 µM throughout. In addition, in the series with YFV [5] (setting [17]), the EC50 is more than 10 µM. For the same compound, the concentration for an effect of 90% (EC90) in the series on YFV [5] (setting [17]) is more than 10 µM.

For `CC(C)OC(=O)[C@H](C)NP(=O)(OC[C@H]1O[C@@H](n2ccc(=O)[nH]c2=O)[C@](F)(Cl)[C@@H]1O)Oc1ccccc1` (some centres unmarked) [Compound 7], the CC50 in the series “in vitro [3]”, in the series “in vitro [4]” and in “in vitro [6]” was more than 100 µM each time. The EC50 with YFV [5] (setting [17]) is more than 10 µM. Moreover, the concentration for an effect of 90% (EC90) in the series with YFV [5] (setting [17]) was more than 10 µM.

Take `O=c1ccn([C@@H]2O[C@H](CO)[C@@H](O)[C@]2(F)Br)c(=O)[nH]1` [Compound 8]: the CC50 in the series “in vitro [1]”, in the series “in vitro [3]”, in the series “in vitro [4]” and in “in vitro [6]” was more than 100 µM in each case. In the series with YFV [5] (setting [17]), the EC50 is more than 10 µM. Further, in the series with YFV [5] (setting [17]), the EC90 was more than 10 µM.

In the case of `CC(C)OC(=O)[C@H](C)N[P@](=O)(OC[C@H]1O[C@@H](n2ccc(=O)[nH]c2=O)[C@@](F)(Br)[C@@H]1O)Oc1ccccc1` [Compound 9], the viability at 100 µM in the series “in vitro [1]” was 87.1%. The compound also gave a CC50 in the series “in vitro [3]” of more than 100 µM. The “NTP formed in Huh-7 cells” value in the series with Huh-7 cells [10] is on record as 646 ± 107 pmol/10^6 cells. Besides, the “Cytotoxicity in MDM” value in the series on MDM was “no notable cytotoxicity up to 100 µM”. Moreover, in “in vitro [4]”, the CC50 was more than 100 µM. Moreover, the EC50 in the series on YFV [11] was 3.2 µM. Besides, the concentration for a half-maximal effect (EC50) in the series with YFV [12] is 0.4 ± 0.1 µM. The EC90 in the series on YFV [12] (read-out: EC90, YFV replication in MDM) came to 1.5 ± 0.6 µM. Besides, in the series with YFV 17D, the “Immune cell infiltration into the liver” value is given as “significantly reduced”, the “Impact on total circulating leukocytes” value is “no adverse impact”, the “Impact on weight loss” value is “no adverse impact” and the “Levels of serum transaminase (ALT)” value is “reduced”. Moreover, in the series on YFV 17D, the “Percentage of mice with absent inflammatory cell infiltration in the liver” value is listed as 25%, the “Percentage of mice with mild inflammatory cell infiltration in the liver” value is given as 50%, the “Percentage of mice with minimum inflammatory cell infiltration in the liver” value was 25% and the “YFV genome copy levels (virus load) in liver” value is on record as “significant reduction”. For the same compound, the viability at 100 µM in the series “in vitro [13]” stood at 84.3 ± 0.9%. In the series on YFV [5] (setting [17]), the EC50 is 0.85 µM and the EC90 amounted to 7.8 ± 3.6 µM. For the same compound, the concentration for a half-maximal effect (EC50) in the series on YFV [5] is 0.9 ± 0.8 µM. The “NTP formed in primary hepatocytes” value in series [14] is reported as 3206 ± 247 pmol/10^6 cells. This compound returned a CC50 in “in vitro [6]” of more than 100 µM.

For `O=c1ccn([C@@H]2O[C@H](CO)[C@@H](O)[C@@]2(F)Br)c(=O)[nH]1` [Compound 10], the CC50 in “in vitro [1]”, in “in vitro [3]”, in the series “in vitro [4]” and in “in vitro [6]” was more than 100 µM each time. In addition, in the series on YFV [5] (setting [17]), the EC50 was more than 10 µM. Moreover, the 90% effect concentration (EC90) in the series on YFV [5] (setting [17]) was more than 10 µM.

Regarding `CC(C)OC(=O)[C@H](C)NP(=O)(OC[C@H]1O[C@@H](n2ccc(=O)[nH]c2=O)[C@](F)(Br)[C@@H]1O)Oc1ccccc1` (some centres unmarked) [Compound 11], the CC50 in “in vitro [3]”, in the series “in vitro [4]” and in “in vitro [6]” was more than 100 µM in each case. Moreover, the EC50 in the series on YFV [5] (setting [17]) is more than 10 µM. Further, the EC90 in the series with YFV [5] (setting [17]) is more than 10 µM.

For the compound `CC(C)OC(=O)[C@H](C)N[P@](=O)(OC[C@H]1O[C@@H](n2ccc(=O)[nH]c2=O)[C@](C)(F)[C@@H]1O)Oc1ccccc1` [Sofosbuvir, sofosbuvir, reference compound], the CC50 in the series “in vitro [1]” is less than 100 µM; in “in vitro [3]” it was more than 100 µM; in the series “in vitro [4]”, more than 100 µM; in the series with Huh-7 cells [16], 88.5 ± 11.6 µM; in the series “in vitro [6]” it was more than 100 µM. The “NTP formation in Huh-7 cells” value in the series on Huh-7 cells [2] came to 317.2 pmol / 10^6 cells. Further, the “Viral burden in sera, livers, kidneys and spleens” value in the series with YFV [15] is “failed to reduce viral burden”. Further, the EC50 was 0.4 ± 0.3 µM in the series on YFV [12] and 0.6 ± 0.6 µM with YFV [5] (setting [17]). The EC90 with YFV [5] (setting [17]) was 3.5 ± 1.5 µM. Moreover, the “NTP formation in primary human hepatocytes” value in [7] came to 2230.0 pmol / 10^6 cells.
